{"source": "ChEMBL document CHEMBL1136669", "about": "“Synthesis of aza and oxaglutamyl-p-nitroanilide derivatives and their kinetic studies with gamma-glutamyltranspeptidase” (Bioorg Med Chem Lett, 2003)", "key": {"[1]": {"biological_target": "Glutathione hydrolase 1 proenzyme (Rattus norvegicus) (UniProt P07314)", "sequence (P07314 1-379 limits assumed)": "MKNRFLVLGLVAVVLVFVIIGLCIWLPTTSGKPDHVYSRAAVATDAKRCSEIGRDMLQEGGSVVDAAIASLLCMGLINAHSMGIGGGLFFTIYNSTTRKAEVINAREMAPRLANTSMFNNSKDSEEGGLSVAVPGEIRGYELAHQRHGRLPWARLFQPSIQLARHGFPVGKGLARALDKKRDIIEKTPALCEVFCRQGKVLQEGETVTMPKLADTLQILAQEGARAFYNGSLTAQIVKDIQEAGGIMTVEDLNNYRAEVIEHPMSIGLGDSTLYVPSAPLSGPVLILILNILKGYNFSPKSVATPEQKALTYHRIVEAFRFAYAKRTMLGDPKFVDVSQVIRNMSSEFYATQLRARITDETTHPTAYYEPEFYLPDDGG", "sequence (P07314 380-568 limits assumed)": "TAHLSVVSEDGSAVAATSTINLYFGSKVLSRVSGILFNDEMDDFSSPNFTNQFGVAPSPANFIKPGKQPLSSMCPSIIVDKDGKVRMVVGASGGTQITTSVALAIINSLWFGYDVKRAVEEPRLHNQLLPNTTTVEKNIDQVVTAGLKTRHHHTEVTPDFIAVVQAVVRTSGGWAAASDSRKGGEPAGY", "assay": "Kinetic constant acting as acceptor substrate for gamma-GGT (Glutamyltranspeptidase)-mediated transpeptidation was determined in rat kidney (units are 10e3/min)", "type": "tissue-based"}, "[2]": {"biological_target": "Glutathione hydrolase 1 proenzyme (Rattus norvegicus) (UniProt P07314)", "assay": "Kinetic constant acting as donor substrate for gamma-GGT (Glutamyltranspeptidase)-mediated transpeptidation was determined in rat kidney (units are 10e3/min)", "type": "tissue-based"}, "[3]": {"assay": "Ratio of kinetic constant (Kcat/KM) acting as acceptor substrate for gamma-GGT (Glutamyltranspeptidase)-mediated transpeptidation was determined in rat kidney", "parameters": "unit not given here"}, "[4]": {"assay": "Ratio of kinetic constant (Kcat/KM) acting as donor substrate for gamma-GGT (Glutamyltranspeptidase)-mediated transpeptidation was determined in rat kidney"}, "[5]": {"biological_target": "Glutathione hydrolase 1 proenzyme (Rattus norvegicus) (UniProt P07314)", "assay": "Kinetic constant acting as donor substrate for gamma-GGT (Glutamyltranspeptidase)-mediated transpeptidation was determined (units are 10e3/min); Inactive at 2 mM with 33.8 mU of GGT in rat kidney", "type": "tissue-based"}, "[6]": {"assay": "Ratio of kinetic constant (Kcat/KM) acting as donor substrate for gamma-GGT (Glutamyltranspeptidase)-mediated transpeptidation was determined in rat kidney; Inactive at 2 mM with 33.8 mU of GGT in rat kidney"}, "[7]": {"biological_target": "Glutathione hydrolase 1 proenzyme (Rattus norvegicus) (UniProt P07314)", "assay": "Kinetic constant acting as acceptor substrate for gamma-GGT (Glutamyltranspeptidase)-mediated transpeptidation was determined in rat kidney (units are 10e3/min); Solubility- Insoluble for concentration greater than 15 mM", "type": "tissue-based"}, "[8]": {"biological_target": "Glutathione hydrolase 1 proenzyme (Rattus norvegicus) (UniProt P07314)", "assay": "Kinetic constant acting as donor substrate for gamma-GGT (Glutamyltranspeptidase)-mediated transpeptidation was determined in rat kidney (units are 10e3/min); Inactive at 2 mM with 33.8 mU of GGT", "type": "tissue-based"}, "[9]": {"assay": "Ratio of kinetic constant (Kcat/KM) acting as acceptor substrate for gamma-GGT (Glutamyltranspeptidase)-mediated transpeptidation was determined in rat kidney; Solubility- Insoluble for concentration greater than 15 mM"}, "[10]": {"assay": "Ratio of kinetic constant (Kcat/KM) acting as donor substrate for gamma-GGT (Glutamyltranspeptidase)-mediated transpeptidation was determined in rat kidney; Inactive at 2 mM with 33.8 mU of GGT"}, "[11]": {"biological_target": "Glutathione hydrolase 1 proenzyme (Rattus norvegicus) (UniProt P07314)", "assay": "Compound was tested for the mixed non-competitive inhibition of rat kidney gamma-glutamyltranspeptidase (gamma-GGT)"}, "[12]": {"biological_target": "Glutathione hydrolase 1 proenzyme (Rattus norvegicus) (UniProt P07314)", "assay": "Kinetic constant acting as donor substrate for gamma-GGT (Glutamyltranspeptidase)-mediated transpeptidation was determined in rat kidney (units are 10e3/min); Not applicable", "type": "tissue-based"}, "[13]": {"assay": "Ratio of kinetic constant (Kcat/KM) acting as donor substrate for gamma-GGT (Glutamyltranspeptidase)-mediated transpeptidation was determined in rat kidney; Not applicable"}, "[14]": {"test_system": "COC(=O)[C@@H](N)CNC(=O)Nc1ccc([N+](=O)[O-])cc1", "assay": "Kinetic constant acting as donor substrate for gamma-GGT (Glutamyltranspeptidase)-mediated transpeptidation was determined; Inactive at 2 mM with 33.8 mU of GGT in rat kidney", "type": "tissue-based"}, "[15]": {"test_system": "COC(=O)[C@@H](N)COC(=O)Nc1ccc([N+](=O)[O-])cc1", "assay": "(§1) Kinetic constant acting as donor substrate for gamma-GGT (Glutamyltranspeptidase)-mediated transpeptidation was determined; in rat kidney; Inactive at 2 mM with 33.8 mU of GGT"}, "[16]": {"test_system": "N[C@@H](CNC(=O)Nc1ccc([N+](=O)[O-])cc1)C(=O)O", "assay": "as §1"}, "[17]": {"test_system": "N[C@@H](CNC(=O)Nc1ccc([N+](=O)[O-])cc1)C(=O)O", "assay": "Kinetic constant acting as acceptor substrate for gamma-GGT (Glutamyltranspeptidase)-mediated transpeptidation was determined in rat kidney; Solubility- Insoluble for concentration greater than 15 mM"}, "[18]": {"test_system": "COC(=O)[C@@H](N)CCC(=O)Nc1ccc([N+](=O)[O-])cc1", "assay": "(§2) Kinetic constant acting as donor substrate for GGT (gamma-Glutamyltranspeptidase)-mediated transpeptidation was determined in rat kidney", "type": "tissue-based"}, "[19]": {"test_system": "N[C@@H](CCC(=O)Nc1ccc([N+](=O)[O-])cc1)C(=O)O", "assay": "as §2", "type": "tissue-based"}, "[20]": {"test_system": "COC(=O)[C@@H](N)CO", "assay": "Kinetic constant acting as donor substrate for gamma-GGT (Glutamyltranspeptidase)-mediated transpeptidation was determined in rat kidney; Not applicable"}, "[21]": {"test_system": "COC(=O)[C@@H](N)CCC(=O)Nc1ccc([N+](=O)[O-])cc1", "assay": "(§3) Kinetic constant acting as acceptor substrate for gamma-GGT (Glutamyltranspeptidase)-mediated transpeptidation was determined in rat kidney"}, "[22]": {"test_system": "COC(=O)[C@@H](N)CNC(=O)Nc1ccc([N+](=O)[O-])cc1", "assay": "as §3"}, "[23]": {"test_system": "COC(=O)[C@@H](N)COC(=O)Nc1ccc([N+](=O)[O-])cc1", "assay": "as §3"}, "[24]": {"test_system": "COC(=O)[C@@H](N)CO", "assay": "as §3"}, "[25]": {"test_system": "N[C@@H](CCC(=O)Nc1ccc([N+](=O)[O-])cc1)C(=O)O", "assay": "as §3"}}, "note": "Activity calls are given as the source filed them. The calls are words filed in the database; no cut-off is given here.", "data": [{"compound": "N[C@@H](CCC(=O)Nc1ccc([N+](=O)[O-])cc1)C(=O)O", "values": [{"measurement": "k cat", "setting": "[1]", "result": 267, "unit": "s⁻¹"}, {"measurement": "k cat", "setting": "[2]", "result": 1.15, "unit": "s⁻¹"}, {"measurement": "Ratio", "setting": "[3]", "result": "2.5e+06"}, {"measurement": "Ratio", "setting": "[4]", "result": "1.5e+08"}]}, {"compound": "COC(=O)[C@@H](N)CNC(=O)Nc1ccc([N+](=O)[O-])cc1", "values": [{"measurement": "k cat", "setting": "[1]", "result": 102, "unit": "s⁻¹"}, {"measurement": "k cat", "setting": "[5]", "result": "inactive"}, {"measurement": "Ratio", "setting": "[3]", "result": "1.4e+06"}, {"measurement": "Ratio", "setting": "[6]", "result": "inactive"}]}, {"compound": "N[C@@H](CNC(=O)Nc1ccc([N+](=O)[O-])cc1)C(=O)O", "values": [{"measurement": "k cat", "setting": "[7]", "result": "Insoluble"}, {"measurement": "k cat", "setting": "[8]", "result": "inactive"}, {"measurement": "Ratio", "setting": "[9]", "result": "Insoluble"}, {"measurement": "Ratio", "setting": "[10]", "result": "inactive"}, {"measurement": "Ki' uncomp", "setting": "[11]", "result": 1.7, "unit": "mM"}]}, {"compound": "COC(=O)[C@@H](N)CCC(=O)Nc1ccc([N+](=O)[O-])cc1", "values": [{"measurement": "k cat", "setting": "[1]", "result": 53.3, "unit": "s⁻¹"}, {"measurement": "k cat", "setting": "[2]", "result": 25, "unit": "s⁻¹"}, {"measurement": "Ratio", "setting": "[3]", "result": 580000}, {"measurement": "Ratio", "setting": "[4]", "result": 270000}]}, {"compound": "COC(=O)[C@@H](N)COC(=O)Nc1ccc([N+](=O)[O-])cc1", "values": [{"measurement": "k cat", "setting": "[1]", "result": 80, "unit": "s⁻¹"}, {"measurement": "k cat", "setting": "[8]", "result": "inactive"}, {"measurement": "Ratio", "setting": "[3]", "result": "3e+06"}, {"measurement": "Ratio", "setting": "[10]", "result": "inactive"}]}, {"compound": "COC(=O)[C@@H](N)CO", "values": [{"measurement": "k cat", "setting": "[1]", "result": 21.7, "unit": "s⁻¹"}, {"measurement": "k cat", "setting": "[12]", "result": "inactive"}, {"measurement": "Ratio", "setting": "[3]", "result": 38000}, {"measurement": "Ratio", "setting": "[13]", "result": "inactive"}]}, {"compound": "Glutathione hydrolase 1 proenzyme (Rattus norvegicus), P07314", "values": [{"measurement": "Km", "setting": "[14]", "result": "Not Active"}, {"measurement": "Km", "setting": "[15]", "result": "Not Active"}, {"measurement": "Km", "setting": "[16]", "result": "Not Active"}, {"measurement": "Km", "setting": "[17]", "result": "Insoluble"}, {"measurement": "Km", "setting": "[18]", "result": 5.7, "unit": "mM"}, {"measurement": "Km", "setting": "[19]", "result": 0.47, "unit": "mM"}, {"measurement": "Km", "setting": "[20]", "result": "Not Active"}, {"measurement": "Km", "setting": "[21]", "result": 6, "unit": "mM"}, {"measurement": "Km", "setting": "[22]", "result": 4, "unit": "mM"}, {"measurement": "Km", "setting": "[23]", "result": 1.5, "unit": "mM"}, {"measurement": "Km", "setting": "[24]", "result": 34, "unit": "mM"}, {"measurement": "Km", "setting": "[25]", "result": 6.3, "unit": "mM"}]}]}
